Measurements reported in ChEMBL document CHEMBL1150522, “Preparation and antifungal activity of fusacandin analogs: C-6 sidechain esters” (1996).
Values after ≈ are worked out from the molar mass of the structure shown.

Columns and labels:
Format in all cases: functional
[1] = tested on: Candida albicans; experiment: Minimum inhibitory concentration against Candida albicans (ATCC 10231) in the absence of serum.
[2] = tested on: Candida albicans; experiment: Minimum inhibitory concentration against Candida albicans (ATCC 38247) in the presence of serum
[3] = tested on: Candida albicans; experiment: Minimum inhibitory concentration against Candida albicans (ATCC 62376) in the presence of serum
[4] = tested on: Candida albicans; experiment: Minimum inhibitory concentration against Candida albicans (579a) in the absence of serum.
[5] = tested on: Candida albicans; experiment: Minimum inhibitory concentration against Candida albicans (CCH 442) in the presence of serum
[6] = tested on: Candida albicans; experiment: Minimum inhibitory concentration against Candida albicans (579a) in the presence of serum
[7] = tested on: Candida albicans; experiment: Minimum inhibitory concentration against Candida albicans (ATCC 62376) in the absence of serum.
[8] = tested on: Candida albicans; experiment: Minimum inhibitory concentration against Candida albicans (CCH 442) in the absence of serum.
[9] = tested on: Candida albicans; experiment: Minimum inhibitory concentration against Candida albicans (ATCC 10231) in the presence of serum
[10] = tested on: Candida albicans; experiment: Minimum inhibitory concentration against Candida albicans (ATCC 38247) in the absence of serum.

| MIC [1] [mg/L] | MIC [2] [mg/L] | MIC [3] [mg/L] | MIC [4] [mg/L] | MIC [5] [mg/L] | MIC [6] [mg/L] | MIC [7] [mg/L] | MIC [8] [mg/L] | MIC [9] [mg/L] | MIC [10] [mg/L] | Structure (SMILES) |
| --- | --- | --- | --- | --- | --- | --- | --- | --- | --- | --- |
| 12.5 (≈ 11.5 µM) | 3.12 | 0.78 | 12.5 (≈ 11.5 µM) | 0.78 | 1.56 | 12.5 (≈ 11.5 µM) | 6.25 (≈ 5.77 µM) | 0.78 | 25 (≈ 23.1 µM) | CCCCC/C=C/C=C/[C@@H](O)C/C=C/C=C/C(=O)O[C@@H]1[C@@H](O)[C@H](c2c(O)cc(O)cc2CO)O[C@H](CO)[C@H]1O[C@@H]1O[C@H](COC(=O)c2ccc(-c3ccc(OC)cc3)cc2)[C@H](O)[C@H](O)[C@H]1O[C@@H]1O[C@H](CO)[C@H](O)[C@H](O)[C@H]1O |
| > 100 | 6.25 | 12.5 | > 100 | 12.5 | 6.25 | > 100 | > 100 | 12.5 | > 100 | CCCCC/C=C/C=C/[C@@H](O)C/C=C/C=C/C(=O)O[C@@H]1[C@@H](O)[C@H](c2c(O)cc(O)cc2CO)O[C@H](CO)[C@H]1O[C@@H]1O[C@H](COC(=O)c2ccccc2)[C@H](O)[C@H](O)[C@H]1O[C@@H]1O[C@H](CO)[C@H](O)[C@H](O)[C@H]1O |
| 50 (≈ 46.2 µM) | 1.56 | 3.12 | 50 (≈ 46.2 µM) | 1.56 | 0.78 | 25 (≈ 23.1 µM) | 100 (≈ 92.3 µM) | 1.56 | 100 (≈ 92.3 µM) | CCCCC/C=C/C=C/[C@@H](O)C/C=C/C=C/C(=O)O[C@@H]1[C@@H](O)[C@H](c2c(O)cc(O)cc2CO)O[C@H](CO)[C@H]1O[C@@H]1O[C@H](COC(=O)c2cccc(-c3ccc(OC)cc3)c2)[C@H](O)[C@H](O)[C@H]1O[C@@H]1O[C@H](CO)[C@H](O)[C@H](O)[C@H]1O |
| 12.5 (≈ 11.9 µM) | 1.56 | 0.78 | 12.5 (≈ 11.9 µM) | 0.78 | 0.78 | 12.5 (≈ 11.9 µM) | 12.5 (≈ 11.9 µM) | 0.78 | 25 (≈ 23.7 µM) | CCCCC/C=C/C=C/[C@@H](O)C/C=C/C=C/C(=O)O[C@@H]1[C@@H](O)[C@H](c2c(O)cc(O)cc2CO)O[C@H](CO)[C@H]1O[C@@H]1O[C@H](COC(=O)c2ccc(-c3ccccc3)cc2)[C@H](O)[C@H](O)[C@H]1O[C@@H]1O[C@H](CO)[C@H](O)[C@H](O)[C@H]1O |
| 50 (≈ 46.8 µM) | 3.12 | 3.12 | 50 (≈ 46.8 µM) | 3.12 | 1.56 | > 100 | 100 (≈ 93.5 µM) | 3.12 | 50 (≈ 46.8 µM) | CCCCC/C=C/C=C/[C@@H](O)C/C=C/C=C/C(=O)O[C@@H]1[C@@H](O)[C@H](c2c(O)cc(O)cc2CO)O[C@H](CO)[C@H]1O[C@@H]1O[C@H](COC(=O)c2ccc(Oc3ccccc3)cc2)[C@H](O)[C@H](O)[C@H]1O[C@@H]1O[C@H](CO)[C@H](O)[C@H](O)[C@H]1O |
| > 100 | 1.56 | 1.56 | > 100 | 3.12 | 0.78 | > 100 | > 100 | 3.12 | > 100 | CCCCC/C=C/C=C/[C@@H](O)C/C=C/C=C/C(=O)O[C@@H]1[C@@H](O)[C@H](c2c(O)cc(O)cc2CO)O[C@H](CO)[C@H]1O[C@@H]1O[C@H](COC(=O)c2ccc(CCCC)cc2)[C@H](O)[C@H](O)[C@H]1O[C@@H]1O[C@H](CO)[C@H](O)[C@H](O)[C@H]1O |
| 12.5 (≈ 11.1 µM) | 3.12 | 0.78 | 12.5 (≈ 11.1 µM) | 0.78 | 0.78 | 12.5 (≈ 11.1 µM) | 12.5 (≈ 11.1 µM) | 1.56 | 25 (≈ 22.1 µM) | CCCCC/C=C/C=C/[C@@H](O)C/C=C/C=C/C(=O)O[C@@H]1[C@@H](O)[C@H](c2c(O)cc(O)cc2CO)O[C@H](CO)[C@H]1O[C@@H]1O[C@H](COC(=O)c2ccc(-c3ccc(-c4ccccc4)cc3)cc2)[C@H](O)[C@H](O)[C@H]1O[C@@H]1O[C@H](CO)[C@H](O)[C@H](O)[C@H]1O |
| 12.5 (≈ 11.2 µM) | 0.78 | 0.78 | 12.5 (≈ 11.2 µM) | 0.78 | 0.78 | 12.5 (≈ 11.2 µM) | 6.25 (≈ 5.62 µM) | 1.56 | 25 (≈ 22.5 µM) | CCCCC/C=C/C=C/[C@@H](O)C/C=C/C=C/C(=O)O[C@@H]1[C@@H](O)[C@H](c2c(O)cc(O)cc2CO)O[C@H](CO)[C@H]1O[C@@H]1O[C@H](COC(=O)c2ccc(-c3ccc(OC(C)C)cc3)cc2)[C@H](O)[C@H](O)[C@H]1O[C@@H]1O[C@H](CO)[C@H](O)[C@H](O)[C@H]1O |
| > 100 | > 100 | > 100 | > 100 | > 100 | > 100 | > 100 | > 100 | > 100 | > 100 | CCCCC/C=C/C=C/[C@@H](O)C/C=C/C=C/C(=O)O[C@@H]1[C@@H](O)[C@H](c2c(O)cc(O)cc2CO)O[C@H](CO)[C@H]1O[C@@H]1O[C@H](COC(C)=O)[C@H](O)[C@H](O)[C@H]1O[C@@H]1O[C@H](CO)[C@H](O)[C@H](O)[C@H]1O |
| 50 (≈ 46.4 µM) | 6.25 | 3.12 | 50 (≈ 46.4 µM) | 3.12 | 3.12 | 100 (≈ 92.8 µM) | 100 (≈ 92.8 µM) | 3.12 | 100 (≈ 92.8 µM) | CCCCC/C=C/C=C/[C@@H](O)C/C=C/C=C/C(=O)O[C@@H]1[C@@H](O)[C@H](c2c(O)cc(O)cc2CO)O[C@H](CO)[C@H]1O[C@@H]1O[C@H](COC(=O)c2cc3ccccc3c3ccccc23)[C@H](O)[C@H](O)[C@H]1O[C@@H]1O[C@H](CO)[C@H](O)[C@H](O)[C@H]1O |
| 50 (≈ 48.7 µM) | 1.56 | 6.25 | 50 (≈ 48.7 µM) | 3.12 | 3.12 | 100 (≈ 97.4 µM) | 50 (≈ 48.7 µM) | 3.12 | 50 (≈ 48.7 µM) | CCCCC/C=C/C=C/[C@@H](O)C/C=C/C=C/C(=O)O[C@@H]1[C@@H](O)[C@H](c2c(O)cc(O)cc2CO)O[C@H](CO)[C@H]1O[C@@H]1O[C@H](COC(=O)c2cccc3ccccc23)[C@H](O)[C@H](O)[C@H]1O[C@@H]1O[C@H](CO)[C@H](O)[C@H](O)[C@H]1O |
| 25 (≈ 23.1 µM) | 0.78 | 0.39 | 25 (≈ 23.1 µM) | 0.78 | 0.2 | 25 (≈ 23.1 µM) | 12.5 (≈ 11.6 µM) | 0.78 | 25 (≈ 23.1 µM) | CCCCC/C=C/C=C/[C@@H](O)C/C=C/C=C/C(=O)O[C@@H]1[C@@H](O)[C@H](c2c(O)cc(O)cc2CO)O[C@H](CO)[C@H]1O[C@@H]1O[C@H](COC(=O)c2ccc(-c3ccc(CC)cc3)cc2)[C@H](O)[C@H](O)[C@H]1O[C@@H]1O[C@H](CO)[C@H](O)[C@H](O)[C@H]1O |
| 50 (≈ 43.1 µM) | 3.12 | 1.56 | 50 (≈ 43.1 µM) | 3.12 | 0.78 | 25 (≈ 21.6 µM) | 12.5 (≈ 10.8 µM) | 1.56 | 25 (≈ 21.6 µM) | CCCCC/C=C/C=C/[C@@H](O)C/C=C/C=C/C(=O)O[C@@H]1[C@@H](O)[C@H](c2c(O)cc(O)cc2CO)O[C@H](CO)[C@H]1O[C@@H]1O[C@H](COC(=O)c2ccc(-c3ccc(OCc4ccccc4)cc3)cc2)[C@H](O)[C@H](O)[C@H]1O[C@@H]1O[C@H](CO)[C@H](O)[C@H](O)[C@H]1O |
| > 100 | 12.5 | 12.5 | > 100 | 6.25 | 12.5 | > 100 | > 100 | 12.5 | > 100 | CCCCC/C=C/C=C/[C@@H](O)C/C=C/C=C/C(=O)O[C@@H]1[C@@H](O)[C@H](c2c(O)cc(O)cc2CO)O[C@H](CO)[C@H]1O[C@@H]1O[C@H](COC(=O)CCCCCCCCC)[C@H](O)[C@H](O)[C@H]1O[C@@H]1O[C@H](CO)[C@H](O)[C@H](O)[C@H]1O |
